Read-outs that look alike come from different tables or passages of the source.
Assays:
SkBr3 = assay: Anti-proliferation activity; format: cell-based; conditions: Homo sapiens, SK-BR-3
MCF-7 = assay: Anti-proliferation activity; format: cell-based; conditions: Homo sapiens, MCF7
NCI-H23 cells = assay: Anti-proliferation assay (MTS/PMS, 72 h); format: cell-based; conditions: Homo sapiens, non-small cell lung cancer
Protocol: Cells were grown to confluence and seeded at 2000 cells/well/0.1 mL in a 96-well plate and placed back in the incubator for 24 h. Compounds or vehicle were administered at the desired concentrations (1% DMSO final concentration) and incubated for 72 h. The % viable cells was determined using the MTS/PMS cell proliferation kit (Promega) per the manufacturer's instructions. Cells treated with vehicle were normalized to 100% proliferation and values adjusted accordingly.

Hsp90α = Hsp90α (Homo sapiens (Human), UniProt P07900); assay: Fluorescence polarization assay (FITC-GDA tracer displacement); format: binding
Protocol: (§1) Florescence Polarization.
(§2) Assay was performed in 96-well format in black, flat bottom plates (Santa Cruz Biotechnology) with a final volume of 100 μL. […] Compounds were tested in triplicate wells (1% DMSO final concentration). For each plate, wells containing buffer only (background), tracer in buffer only (low polarization control), and protein and tracer in buffer with 1% DMSO (highpolarization control) were included. Plates were incubated at 4° C. with rocking for 24 h. […] Polarization values were correlated to % tracer bound and compound concentrations. The concentration at which the tracer was 50% displaced by the inhibitor was determined using Graphpad Prism.

Hsp90β = Hsp90β (Homo sapiens (Human), UniProt P08238); assay: as above; format: binding; conditions: for Selectivity: Hsp90β over Hsp90α
Hsp90β, sequence (P08238 whole entry): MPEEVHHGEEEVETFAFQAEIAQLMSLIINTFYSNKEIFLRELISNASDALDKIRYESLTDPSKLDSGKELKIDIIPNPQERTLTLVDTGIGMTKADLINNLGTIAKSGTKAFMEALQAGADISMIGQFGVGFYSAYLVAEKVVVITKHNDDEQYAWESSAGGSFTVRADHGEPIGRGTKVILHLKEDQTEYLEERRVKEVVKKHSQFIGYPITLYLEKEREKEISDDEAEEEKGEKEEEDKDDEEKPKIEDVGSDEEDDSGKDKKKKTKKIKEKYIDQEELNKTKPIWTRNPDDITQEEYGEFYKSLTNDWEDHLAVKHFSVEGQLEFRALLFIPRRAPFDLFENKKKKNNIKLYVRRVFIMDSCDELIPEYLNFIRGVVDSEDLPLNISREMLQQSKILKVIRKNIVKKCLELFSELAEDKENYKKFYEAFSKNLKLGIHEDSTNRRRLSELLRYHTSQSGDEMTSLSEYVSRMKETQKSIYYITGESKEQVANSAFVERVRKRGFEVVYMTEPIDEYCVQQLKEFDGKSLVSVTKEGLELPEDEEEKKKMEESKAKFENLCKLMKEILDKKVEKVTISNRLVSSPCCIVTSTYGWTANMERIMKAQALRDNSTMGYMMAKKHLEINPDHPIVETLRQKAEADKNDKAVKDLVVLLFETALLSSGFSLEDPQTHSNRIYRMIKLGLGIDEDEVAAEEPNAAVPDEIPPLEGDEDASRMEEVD
Protocol: as §1, §2

Grp94 = assay: as above; format: binding
Protocol: as §1, §2

[1] = fluorescence polarization, read-out: Kd Hsp90β

Row | Structure (SMILES) | Kd (Hsp90α; fluorescence polarization) [µM] | Kd (Hsp90β; [1]) [µM] | other results
1 | CC(C)c1cc(C(=O)N2Cc3ccccc3C2)c(O)c2cnoc12 |  |  | IC50 (SkBr3): 38.2 ± 2.75 µM; IC50 (MCF-7): 28.3 ± 1.47 µM
2 | CC(C)c1cc(C(=O)N2Cc3ccc(F)cc3C2)c(O)c2cnoc12 |  |  | IC50 (MCF-7): 16.6 µM; IC50 (NCI-H23 cells): 5.76 µM
3 | CC(C)c1cc(C(=O)N2Cc3ccc(F)cc3C2)c(O)c(CO)c1O |  |  | IC50 (MCF-7): 13.2 µM; IC50 (NCI-H23 cells): 2.13 ± 0.7 µM
4 | CC(C)c1cc(C(=O)N2Cc3ccccc3C2)c(O)c2[nH]ncc12 |  |  | IC50 (SkBr3): 29.7 µM; IC50 (MCF-7): 19.1 µM; IC50 (NCI-H23 cells): 13.7 µM
5 | O=C(c1cc(Br)c2cn[nH]c2c1O)N1Cc2ccccc2C1 |  |  | IC50 (SkBr3): 23.6 µM; IC50 (NCI-H23 cells): 13.4 µM
6 | CC(C)c1cc(C(=O)N2Cc3ccccc3C2)c(O)cc1CBr [Br] | 4.98 ± 0.97 | 0.73 ± 0.11 | 
7 | CCc1cc(O)c(C(=O)N2Cc3ccccc3C2)cc1C(C)C [CH3] | > 50 | > 50 | 
8 | CC(C)c1cc(C(=O)N2Cc3ccccc3C2)c(O)cc1C=O [CHO] |  |  | Kd (Hsp90α): 1.21 ± 0.12 µM
9 | CC(C)c1cc(C(=O)N2Cc3ccccc3C2)c(O)cc1CC#N [CN] | 2.28 ± 0.12 |  | 
10 | CC(C)c1cc(C(=O)N2Cc3ccccc3C2)c(O)cc1CCl [Cl] | > 100 | 25.2 ± 1.45 | 
11 | CC(C)c1ccc(O)c(C(=O)N2Cc3ccccc3C2)c1 [Compound 1] | 3.21 | 1.63 | selectivity for Hsp90β over Hsp90α (Hsp90β): ~2 fold
12 | CC(C)c1cc(C(=O)N2Cc3ccccc3C2)c(O)cc1CC#N [Compound 2, 2-(5-Hydroxy-4-(isoindoline-2-carbonyl)-2-isopropylphenyl)acetonitrile] |  | 0.97 | selectivity for Hsp90β over Hsp90α (Hsp90β): ~2.5 fold
13 | COCc1cc(O)c(C(=O)N2Cc3ccccc3C2)cc1C(C)C [Compound 3, (2-Hydroxy-5-isopropyl-4-(methoxymethyl)phenyl)(isoindolin-2-yl)methanone] |  |  | binding to Hsp90α (Hsp90α; at 10 μM): did not bind; binding to Hsp90β (Hsp90β; at 10 μM): did not bind
14 | CC(C)c1cc(C(=O)N2Cc3ccccc3C2)c(O)cc1C=O [Compound 4, 5-Hydroxy-4-(isoindoline-2-carbonyl)-2-isopropylbenzaldehyde] |  |  | Kd (Hsp90α): 1.55 µM
15 | CC(C)c1cc(C(=O)N2Cc3ccccc3C2)c(O)c(C=O)c1O [KUNB1, 2,6-Dihydroxy-3-(isoindoline-2-carbonyl)-5-isopropylbenzaldehyde] |  | ≥ 100 | 
16 | C=Cc1c(O)c(C(=O)N2Cc3ccccc3C2)cc(C(C)C)c1O [KUNB2, (2,4-Dihydroxy-5-isopropyl-3-vinylphenyl)(isoindolin-2-yl)methanone] |  | 5.24 | 
17 | CCc1c(O)c(C(=O)N2Cc3ccccc3C2)cc(C(C)C)c1O [KUNB3, (3-Ethyl-2,4-dihydroxy-5-isopropylphenyl)(isoindolin-2-yl)methanone] |  | 3.31 | 
18 | CC(C)c1cc(C(=O)N2Cc3ccccc3C2)c(O)c(CN)c1O [KUNB4, (3-(Aminomethyl)-2,4-dihydroxy-5-isopropylphenyl)(isoindolin-2-yl)methanone] |  |  | Kd (Hsp90β): ≥ 100 µM
19 | CCCc1c(O)c(C(=O)N2Cc3ccccc3C2)cc(C(C)C)c1OCOC [KUNB5, (2-Hydroxy-5-isopropyl-4-(methoxymethoxy)-3-propylphenyl)(isoindolin-2-yl)methanone] |  |  | Kd (Hsp90β): 6.3 µM

Row | Structure (SMILES) | Kd (Hsp90α; fluorescence polarization) [µM] | Kd (Hsp90β; [1]) [µM] | other results
20 | C=CCc1c(O)c(C(=O)N2Cc3ccccc3C2)cc(C(C)C)c1OCOC [KUNB6, (3-Allyl-2-hydroxy-5-isopropyl-4-(methoxymethoxy)phenyl)(isoindolin-2-yl)methanone] |  |  | Kd (Hsp90β): ≥ 100 µM
21 | COCOc1c(C(C)C)cc(C(=O)N2Cc3ccccc3C2)c(O)c1CCO [KUNB7, (2-Hydroxy-3-(2-hydroxyethyl)-5-isopropyl-4-(methoxymethoxy)phenyl) (isoindolin-2-yl)methanone] |  |  | Kd (Hsp90β): ≥ 100 µM
22 | CC(C)c1cc(C(=O)N2Cc3ccccc3C2)c(O)c(CO)c1O [KUNB14, (2,4-Dihydroxy-3-(hydroxymethyl)-5-isopropylphenyl)(isoindolin-2-yl)methanone] |  | 4.27 | 
23 | CC(C)c1cc(C(=O)N2Cc3ccccc3C2)c(O)c2c1C1C=NNC1O2 (stereo not drawn) [KUNB17] | ≥ 10 | 0.72 | Selectivity (Hsp90β): ≥14
24 | CC(C)c1cc(C(=O)N2Cc3ccccc3C2)c(O)c2cn[nH]c12 [KUNB18] | 82.5 | 3.71 | Selectivity (Hsp90β): 22
25 | CC(C)c1cc(C(=O)N2Cc3ccccc3C2)c(O)c2nc[nH]c12 [KUNB19] | ≥ 100 | 6.3 | Selectivity (Hsp90β): 1.6
26 | CC(C)c1cc(C(=O)N2Cc3ccccc3C2)c(O)c2c1CCC2=O [KUNB22] | 9.3 | 0.11 | Selectivity (Hsp90β): 85
27 | CCC1Cc2c(C(C)C)cc(C(=O)N3Cc4ccccc4C3)c(O)c2C1=O (stereo not drawn) [KUNB23] | ≥ 10 | 0.58 | Selectivity (Hsp90β): ≥17
28 | CCCC1Cc2c(C(C)C)cc(C(=O)N3Cc4ccccc4C3)c(O)c2C1=O (stereo not drawn) [KUNB24] | ≥ 100 | 2.7 | Selectivity (Hsp90β): ≥37
29 | CC(C)c1cc(C(=O)N2Cc3ccccc3C2)c(O)c2c1CNC2=O [KUNB25] | ≥ 10 | 0.33 | Selectivity (Hsp90β): ≥30
30 | CCN1Cc2c(C(C)C)cc(C(=O)N3Cc4ccccc4C3)c(O)c2C1=O [KUNB26] | ≥ 10 | 0.53 | Selectivity (Hsp90β): ≥19
31 | CC1Cc2c(C(C)C)cc(C(=O)N3Cc4ccccc4C3)c(O)c2C1=O (stereo not drawn) [KUNB28] | ≥ 10 | 0.295 | Selectivity (Hsp90β): ≥34
32 | CC(C)c1cc(C(=O)N2Cc3ccc(F)cc3C2)c2oncc2c1O [KUNB31b, (5-fluoroisoindolin-2-yl)(4-hydroxy-5-isopropylbenzo[d]isoxazol-7-yl)methanone] |  |  | selectivity for Hsp90β over Grp94 (Grp94): ~50 fold; selectivity for Hsp90β over Hsp90α (Hsp90β): ~50 fold
33 | CC(C)c1cc(C(=O)N2Cc3ccccc3C2)c(O)cc1N [NH2] | 0.46 ± 0.22 | 0.71 | 
34 | CNCc1cc(O)c(C(=O)N2Cc3ccccc3C2)cc1C(C)C [NHCH3] | > 100 | 23.2 ± 1.07 | 
35 | CC(C)c1cc(C(=O)N2Cc3ccccc3C2)c(O)cc1CO [OH] | 4.21 ± 0.62 | 1.97 ± 0.07 | 
36 | COCc1cc(O)c(C(=O)N2Cc3ccccc3C2)cc1C(C)C [OMe] | > 50 | > 50 | 
37 | CC(C)c1cc(C(=O)N2Cc3ccccc3C2)c(O)c(CO)c1O [drawing 45] |  |  | IC50 (SkBr3): 9.13 ± 1.03 µM; IC50 (MCF-7): 13.7 ± 1.46 µM; IC50 (NCI-H23 cells): 3.9 ± 0.33 µM
